Measured values from paper PMC12172596, “Unveiling New Triazoloquinoxaline‐Based PROTACs Designed for the Selective Degradation of the ncBAF Chromatin Remodeling Subunit BRD9” (Chemistry (Weinheim an Der Bergstrasse, Germany), 2025).

Columns and labels:
U937 cells = assay: Proliferation assay (trypan blue exclusion cell counting) in U937 cells; assay type: cell-based, human; details: time-point treatment
Method: The AML U937 cell line (ATCC) was grown in Roswell Park Memorial Institute (RPMI) 1640 Medium with the addition of 10% fetal bovine serum (FBS), 1% L‐glutamine, and 1% antibiotics (100 U/mL penicillin, 100 µg/mL streptomycin, and 250 ng/mL amphotericin‐B). Cells have been authenticated by STR profiling.
Trypan blue exclusion cell counting has been used to trace the number of cells over the different times of analysis.

BRD9 (BD1) = target: T1, BRD9 (BD1) (Homo sapiens, UniProt Q9H8M2); assay: AlphaScreen assay, BRD9 (BD1) Inhibitor Screening Assay Kit; assay type: binding
T1 construct: BSP‐32519
T1 sequence (Q9H8M2 136-240 limits assumed): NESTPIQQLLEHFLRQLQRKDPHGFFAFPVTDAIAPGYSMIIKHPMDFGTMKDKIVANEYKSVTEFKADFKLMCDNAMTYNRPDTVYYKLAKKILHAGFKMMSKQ
Method: The evaluation of the interaction between synthesized compounds and BRD9 was conducted using AlphaScreen Technology using an Enspire microplate analyzer (Perkin Elmer)^[ [70] ^] and the BRD9 (BD1) Inhibitor Screening Assay Kit (BSP‐32519) as reported by Colarusso et al.^[ [38], [39] ^] IC50 values were calculated by GraphPad Prism10 software.

BRD9 = target: T2, BRD9 (Homo sapiens, UniProt Q9H8M2); assay: Western blotting of BRD9 protein levels in U937 cells; assay type: cell-based
T2 construct: WB analysis showing BRD9 protein levels following 48‐hours treatments with compounds 2−8; endogenous in cells; host or cells: U937 (ATCC)
T2 sequence (Q9H8M2 1-597): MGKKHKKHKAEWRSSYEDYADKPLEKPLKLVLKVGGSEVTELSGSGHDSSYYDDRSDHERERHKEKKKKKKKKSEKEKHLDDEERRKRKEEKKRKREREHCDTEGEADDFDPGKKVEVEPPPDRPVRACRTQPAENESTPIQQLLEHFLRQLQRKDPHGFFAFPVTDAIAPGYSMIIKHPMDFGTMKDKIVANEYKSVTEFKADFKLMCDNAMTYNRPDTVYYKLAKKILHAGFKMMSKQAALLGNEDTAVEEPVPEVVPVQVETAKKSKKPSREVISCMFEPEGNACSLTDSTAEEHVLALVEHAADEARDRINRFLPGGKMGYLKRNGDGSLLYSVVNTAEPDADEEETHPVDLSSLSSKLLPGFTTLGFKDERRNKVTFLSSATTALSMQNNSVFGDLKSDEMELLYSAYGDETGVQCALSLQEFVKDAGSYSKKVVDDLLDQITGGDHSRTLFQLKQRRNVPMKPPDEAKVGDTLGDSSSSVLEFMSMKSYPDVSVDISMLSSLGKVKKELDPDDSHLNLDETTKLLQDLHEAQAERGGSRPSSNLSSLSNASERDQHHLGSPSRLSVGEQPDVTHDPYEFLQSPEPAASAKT
Method: Cells have been authenticated by STR profiling.
Western blot was performed according to the previous protocol.^[ [71], [72] ^] U937 AML cells were pelleted and then lysed in RIPA buffer (1% Triton X‐100, 0.1% SDS, 150 mM NaCl, 1 mM EDTA pH 8, 10 mM Tris‐HCl pH 8) added with 1% protease inhibitor cocktail. The resulting lysate was subjected to centrifugation for 15 minutes at 4 °C. […] The protein signal was visualized by enhanced chemiluminescence method (ECL) through the Bio‐Rad Chemidoc machine. ImageJ software was used for densitometric analysis.

Structure (SMILES): CCCCc1nnc2c(Nc3cccc(NC(=O)CCCCCCOCCOCC(=O)N[C@H](C(=O)N4C[C@H](O)C[C@H]4C(=O)NCc4ccc(-c5scnc5C)cc4)C(C)(C)C)c3)nc3ccccc3n12 [compound 9]
- AML cell proliferation (U937 cells): negatively affected AML cell proliferation
- IC50 (BRD9 (BD1); AlphaScreen, read-out: IC50, BRD9 binding): 660 ± 40 nM
- fold higher binding affinity to BRD9 compared to degrader 2 (BRD9 (BD1); compared to compound 2): 4.5 fold
- BRD9 protein levels with proteasome inhibitor MG132 (BRD9; 48 hours treatment with or without MG132 (25 µM for 6 hours)): MG132 treatment rescued BRD9 depletion
- concentration at which BRD9 degradation is effectively induced (BRD9; 48 hours treatment, western blot): 1 µM
